Conditions: 101.33 kPa, Liquid, transient hot wire

CCO [ethanol]
Conditions	thermal conductivity [W/m/K]
276.51 K	0.1719
280.8 K	0.1687
284.27 K	0.1699
290.37 K	0.1677
293.43 K	0.1658

CCCCCCCCCC(=O)OCC [ethyl decanoate]
Conditions	thermal conductivity [W/m/K]
270 K	0.1483
279.98 K	0.1463
289.85 K	0.1442
299.64 K	0.1422
309.6 K	0.14
319.72 K	0.1375
329.53 K	0.1355
339.49 K	0.1332
349.51 K	0.1307
359.46 K	0.1284
369.3 K	0.1266
374.44 K	0.1248
379.49 K	0.1238
389.25 K	0.1214
400.44 K	0.1195

O [water]
Conditions	thermal conductivity [W/m/K]
293.09 K	0.6056
299.55 K	0.613
309.83 K	0.6313
314.96 K	0.6399
319.56 K	0.6399
324.64 K	0.6492
332.53 K	0.6555
339.33 K	0.657
340.41 K	0.6654
349.41 K	0.6723

CCCCCCC(=O)OCC [ethyl heptanoate]
Conditions	thermal conductivity [W/m/K]
250.38 K	0.1482
260.21 K	0.1463
270.16 K	0.1441
280.02 K	0.1414
289.93 K	0.1397
299.84 K	0.137
309.9 K	0.1343
319.73 K	0.1321
329.73 K	0.1294
337.72 K	0.127
341.71 K	0.1259
347.65 K	0.1251
353.6 K	0.1235
363.5 K	0.121
373.51 K	0.1183
383.64 K	0.1155
393.46 K	0.1139

CCCCCCCC(=O)OCC [ethyl octanoate]
Conditions	thermal conductivity [W/m/K]
254.76 K	0.1484
264.72 K	0.1462
274.7 K	0.144
284.63 K	0.1422
294.53 K	0.1405
300.47 K	0.1387
307.05 K	0.1366
310.45 K	0.1356
320.37 K	0.1336
330.4 K	0.1312
340.34 K	0.1286
350.38 K	0.1268
360.32 K	0.1234
370.25 K	0.1211
380.17 K	0.1188
390.39 K	0.1167
400.37 K	0.1142

CCCCCCCCCCCCCC(=O)OCC [ethyl tetradecanoate]
Conditions	thermal conductivity [W/m/K]
290.64 K	0.1515
298.29 K	0.1501
307.33 K	0.1481
315.2 K	0.1465
324.22 K	0.1448
333.17 K	0.1426
340.99 K	0.1406
350.11 K	0.1383
359.07 K	0.137
367.97 K	0.1342
377.86 K	0.1326
389.06 K	0.1297
393.88 K	0.1286

CCCCCCCCCCCC(=O)OCC [ethyl dodecanoate]
Conditions	thermal conductivity [W/m/K]
274.73 K	0.151
284.69 K	0.1489
294.56 K	0.1471
304.59 K	0.1446
314.47 K	0.1424
324.41 K	0.1399
334.28 K	0.1377
344.09 K	0.1362
349.21 K	0.1343
354.09 K	0.1334
359.09 K	0.1321
369.13 K	0.1296
379.1 K	0.1275
389.1 K	0.1253
400.08 K	0.1229
